Where two headings read alike, the source gives them in different places.
Columns and labels:
[1] = test system: B16F10.9 cells; assay: Cytotoxicity in vitro (MTT or SRB), B16F10.9; assay type: cell-based, mouse
Description: (§1) Cytotoxicity of paclitaxel and of gagomer-encapsulated paclitaxel was evaluated over a matrix of drug-gagomer formulations (see Examples 1, 2 and 3), cell lines and treatment protocols, for the drug concentration range spanning from 1 nM to 100 μM.
(§2) Twenty four hours prior to an experiment, cells of the desired line were seeded onto 96-well multiwell culture plates at densities in the range of 5×10^3 cells/well. The experiments were initiated on sub-confluent monolayers. Two protocols were used:
(§3) (I) Short protocol. The cells were incubated with the treatment media for 4 hours, at the end of which the treatment media was aspirated, the cells washed and incubated for 44 hours in drug-free serum-supplemented cell growth media. Termination was 48 hours from start.
(§4) (II) Long protocol: the cells were incubated in the treatment media for 48 hours. Upon termination, in either protocol, cell viability was determined in each well using either the MTT or the SRB assay method.
(§5) The rationale for the two protocols, the long and the short, is as follows: The long protocol is the traditional one used for in vitro comparisons of cytotoxicity among different drug formulations. The cells are incubated with the treatment formulations for periods usually within the 24-72 hour time span, and all formulations are incubated for the same time. […]

[2] = test system: D122 cells; assay: Cytotoxicity in vitro (MTT or SRB), D122; assay type: cell-based; details: Mus musculus
Description: as §1, §2, §3, §4, §5

[3] = test system: C-26 cells; assay: Cytotoxicity in vitro (MTT or SRB), C-26; assay type: cell-based; details: Mus musculus
Description: as §1, §2, §3, §4, §5

[4] = test system: PANC-1 cells; assay: Cytotoxicity in vitro (MTT or SRB), PANC-1; assay type: cell-based; details: Homo sapiens
Description: as §1, §2, §3, §4, §5

[5] = test system: SNU-251 cells; assay: Cytotoxicity in vitro (MTT or SRB), SNU-251; assay type: cell-based; details: Homo sapiens
Description: as §1, §2, §3, §4, §5

[6] = test system: B16F10.9 cultures; assay: Cytotoxicity before and after sterilization (autoclaving) in B16F10.9 cultures; assay type: cell-based; details: Mus musculus
Description: Aqueous suspensions of TX-GAG particles were prepared according to the scheme of FIG. 7, up to and including step 5. Aqueous suspensions of paclitaxel alone (i.e., free paclitaxel) were also prepared. Samples were set aside, from both the TX-GAG and the free paclitaxel, and the remainder of each system was subjected to the following sterilization process: 12 minutes of autoclaving at 120° C. A critical question of whether this sterilization process is feasible for the TX-GAG formulations, is retention of drug activity. Therefore, the original samples set aside prior to the sterilization process, as well as the samples that underwent the process, were tested for their cytotoxicity, in B16F10.9 cultures, as described in Example 7.

[7] = 4 hours treatment, then 44 hours drug-free media, read-out: IC50 short protocol
[8] = 48 hours incubation with treatment media, read-out: IC50 long protocol

## CC(=O)O[C@H]1C(=O)[C@@]2(C)[C@H]([C@H](OC(=O)c3ccccc3)[C@]3(O)C[C@H](OC(=O)[C@H](O)[C@@H](NC(=O)c4ccccc4)c4ccccc4)C(C)=C1C3(C)C)[C@]1(OC(C)=O)CO[C@@H]1C[C@@H]2O [Free Paclitaxel, paclitaxel]
[1]; Mus musculus, B16F10.9, ethanol as the lipid solvent, 4 hours treatment, then 44 hours drug-free media (Table 6), read-out: IC50 short protocol
  IC50: 1800 nM
[1]; ethanolic paclitaxel solutions heated at 40-70° C., same cytotoxicity assay
  cytotoxic activity after heating of ethanolic solutions: did not impair the drug's cytotoxic activity
[2]; [7]
  IC50: 900 nM
[2]; [8]
  IC50: 250 nM
[3]; C26, 4 hours treatment, then 44 hours drug-free media, read-out: IC50 short protocol
  IC50: 3000 nM
[3]; C26, 48 hours incubation with treatment media, read-out: IC50 long protocol
  IC50: 3500 nM
[4]; [7]
  IC50: 300 nM
[4]; [8]
  IC50: 20 nM
[5]; [7]
  IC50: 600 nM
[5]; [8]
  IC50: 250 nM
[6]; after sterilization: 12 minutes of autoclaving at 120° C. (FIG. 10)
  IC50: ~300 nM
[6]; before sterilization (FIG. 10)
  IC50: ~300 nM
